Source: ChEMBL document CHEMBL3272269, “Synthesis and antileukemic activities of furanyl, pyranyl, and ribosyl derivatives of 4-(3,3-dimethyl-1-triazeno)imidazole-5-carboxamide and 3-(3,3-dimethyl-1-triazeno)pyrazole-4-carboxamide” (J Med Chem, 1979)
Activity calls are given as the source filed them. No cut-off for these calls is given here.

How the values were obtained:
Mus musculus [1] = test: Toxicity in mouse L1210 cells allografted BDF1 mouse assessed as reduction in body weight at 120 mg/kg administered on day 1 followed by 5 injections with 1 day interval; format: organism-based; design: dose 120 mg/kg; conditions: in vivo, 24 h
Mus musculus [2] = test: Toxicity in mouse L1210 cells allografted BDF1 mouse assessed as reduction in body weight at 80 mg/kg administered on day 1 followed by 5 injections with 1 day interval; format: organism-based; design: dose 80 mg/kg; conditions: in vivo, 24 h
Mus musculus [3] = test: Toxicity in mouse L1210 cells allografted BDF1 mouse assessed as reduction in body weight at 53 mg/kg administered on day 1 followed by 5 injections with 1 day interval; format: organism-based; design: dose 53 mg/kg; conditions: in vivo, 24 h
L1210 [4] = test: Antitumor activity against mouse L1210 cells allografted in BDF1 mouse assessed as survival at 180 mg/kg administered on day 1 followed by 5 injections with 1 day interval; format: functional, organism-based; design: dose 180 mg/kg
L1210 [5] = test: Antitumor activity against mouse L1210 cells allografted in BDF1 mouse assessed as survival at 125 mg/kg administered on day 1 followed by 5 injections with 1 day interval; format: functional, organism-based; design: dose 125 mg/kg
L1210 [6] = test: Antitumor activity against mouse L1210 cells allografted in BDF1 mouse assessed as survival at 80 mg/kg administered on day 1 followed by 5 injections with 1 day interval; format: functional, organism-based; design: dose 80 mg/kg
L1210 [7] = test: Antitumor activity against mouse L1210 cells allografted in BDF1 mouse assessed as survival at 53 mg/kg administered on day 1 followed by 5 injections with 1 day interval; format: functional, organism-based; design: dose 53 mg/kg
L1210 [8] = test: Antitumor activity against mouse L1210 cells allografted in BDF1 mouse assessed as increase in survival at 180 mg/kg administered on day 1 followed by 5 injections with 1 day interval relative to control; format: functional
L1210 [9] = test: Antitumor activity against mouse L1210 cells allografted in BDF1 mouse assessed as increase in survival at 125 mg/kg administered on day 1 followed by 5 injections with 1 day interval relative to control; format: functional
L1210 [10] = test: Antitumor activity against mouse L1210 cells allografted in BDF1 mouse assessed as increase in survival at 120 mg/kg administered on day 1 followed by 5 injections with 1 day interval relative to control; format: functional
L1210 [11] = test: Antitumor activity against mouse L1210 cells allografted in BDF1 mouse assessed as increase in survival at 80 mg/kg administered on day 1 followed by 5 injections with 1 day interval relative to control; format: functional
L1210 [12] = test: Antitumor activity against mouse L1210 cells allografted in BDF1 mouse assessed as increase in survival at 53 mg/kg administered on day 1 followed by 5 injections with 1 day interval relative to control; format: functional
Mus musculus [13] = test: Toxicity in mouse L1210 cells allografted BDF1 mouse assessed as reduction in body weight at 180 mg/kg administered on day 1 followed by 5 injections with 1 day interval; format: organism-based; design: dose 180 mg/kg; conditions: in vivo, 24 h
Mus musculus [14] = test: Toxicity in mouse L1210 cells allografted BDF1 mouse assessed as reduction in body weight at 125 mg/kg administered on day 1 followed by 5 injections with 1 day interval; format: organism-based; design: dose 125 mg/kg; conditions: in vivo, 24 h
Mus musculus [15] = test: Toxicity in mouse L1210 cells allografted BDF1 mouse assessed as reduction in body weight at 400 mg/kg administered on day 1 followed by 3 injections with 4 day interval; format: organism-based; design: dose 400 mg/kg; conditions: in vivo, 96 h
Mus musculus [16] = test: Toxicity in mouse L1210 cells allografted BDF1 mouse assessed as reduction in body weight at 200 mg/kg administered on day 1 followed by 3 injections with 4 day interval; format: organism-based; design: dose 200 mg/kg; conditions: in vivo, 96 h
Mus musculus [17] = test: Toxicity in mouse L1210 cells allografted BDF1 mouse assessed as reduction in body weight at 100 mg/kg administered on day 1 followed by 3 injections with 4 day interval; format: organism-based; design: dose 100 mg/kg; conditions: in vivo, 96 h
L1210 [18] = test: Antitumor activity against mouse L1210 cells allografted in mouse assessed as survival at 400 mg/kg administered on day 1 followed by 3 injections with 4 day interval; format: functional, organism-based; design: dose 400 mg/kg
L1210 [19] = test: Antitumor activity against mouse L1210 cells allografted in mouse assessed as survival at 200 mg/kg administered on day 1 followed by 3 injections with 4 day interval; format: functional, organism-based; design: dose 200 mg/kg
L1210 [20] = test: Antitumor activity against mouse L1210 cells allografted in mouse assessed as survival at 100 mg/kg administered on day 1 followed by 3 injections with 4 day interval; format: functional, organism-based; design: dose 100 mg/kg
L1210 [21] = test: Antitumor activity against mouse L1210 cells allografted in mouse assessed as increase in survival at 400 mg/kg administered on day 1 followed by 3 injections with 4 day interval relative to control; format: functional
L1210 [22] = test: Antitumor activity against mouse L1210 cells allografted in mouse assessed as increase in survival at 200 mg/kg administered on day 1 followed by 3 injections with 4 day interval relative to control; format: functional
L1210 [23] = test: Antitumor activity against mouse L1210 cells allografted in mouse assessed as increase in survival at 100 mg/kg administered on day 1 followed by 3 injections with 4 day interval relative to control; format: functional
Mus musculus [24] = test: Toxicity in mouse L1210 cells allografted mouse assessed as reduction in body weight at 200 mg/kg administered on day 1 followed by 5 injections with 1 day interval; format: organism-based; design: dose 200 mg/kg; conditions: in vivo, 24 h
Mus musculus [25] = test: Toxicity in mouse L1210 cells allografted mouse assessed as reduction in body weight at 100 mg/kg administered on day 1 followed by 5 injections with 1 day interval; format: organism-based; design: dose 100 mg/kg; conditions: in vivo, 24 h
Mus musculus [26] = test: Toxicity in mouse L1210 cells allografted mouse assessed as reduction in body weight at 400 mg/kg administered on day 1 followed by 5 injections with 1 day interval; format: organism-based; design: dose 400 mg/kg; conditions: in vivo, 24 h
L1210 [27] = test: Antitumor activity against mouse L1210 cells allografted in mouse assessed as survival at 200 mg/kg administered on day 1 followed by 5 injections with 1 day interval; format: functional, organism-based; design: dose 200 mg/kg
L1210 [28] = test: Antitumor activity against mouse L1210 cells allografted in mouse assessed as survival at 100 mg/kg administered on day 1 followed by 5 injections with 1 day interval; format: functional, organism-based; design: dose 100 mg/kg
L1210 [29] = test: Antitumor activity against mouse L1210 cells allografted in mouse assessed as survival at 400 mg/kg administered on day 1 followed by 5 injections with 1 day interval; format: functional, organism-based; design: dose 400 mg/kg
L1210 [30] = test: Antitumor activity against mouse L1210 cells allografted in mouse assessed as increase in survival at 200 mg/kg administered on day 1 followed by 5 injections with 1 day interval relative to control; format: functional
L1210 [31] = test: Antitumor activity against mouse L1210 cells allografted in mouse assessed as increase in survival at 100 mg/kg administered on day 1 followed by 5 injections with 1 day interval relative to control; format: functional
L1210 [32] = test: Antitumor activity against mouse L1210 cells allografted in mouse assessed as increase in survival at 400 mg/kg administered on day 1 followed by 5 injections with 1 day interval relative to control; format: functional
L1210 [33] = test: Antitumor activity against mouse L1210 cells allografted in mouse assessed as survival at 180 mg/kg administered on day 1 followed by 9 injections with 1 day interval; format: functional, organism-based; design: dose 180 mg/kg
L1210 [34] = test: Antitumor activity against mouse L1210 cells allografted in mouse assessed as survival at 109 mg/kg administered on day 1 followed by 9 injections with 1 day interval; format: functional, organism-based; design: dose 109 mg/kg
L1210 [35] = test: Antitumor activity against mouse L1210 cells allografted in mouse assessed as survival at 65 mg/kg administered on day 1 followed by 9 injections with 1 day interval; format: functional, organism-based; design: dose 65 mg/kg
L1210 [36] = test: Antitumor activity against mouse L1210 cells allografted in mouse assessed as increase in survival at 180 mg/kg administered on day 1 followed by 9 injections with 1 day interval relative to control; format: functional
L1210 [37] = test: Antitumor activity against mouse L1210 cells allografted in mouse assessed as increase in survival at 109 mg/kg administered on day 1 followed by 9 injections with 1 day interval relative to control; format: functional
L1210 [38] = test: Antitumor activity against mouse L1210 cells allografted in mouse assessed as increase in survival at 65 mg/kg administered on day 1 followed by 9 injections with 1 day interval relative to control; format: functional

CN(C)/N=N/c1[nH]cnc1C(N)=O [DACARBAZINE]
Activity (Mus musculus [1]): 2.2 g
Activity (Mus musculus [2]): 2 g
Activity (Mus musculus [3]): 0.8 g
Activity (L1210 [4]): Active
Activity (L1210 [5]): Active
Activity (L1210 [6]): Active
Activity (L1210 [7]): Active
T/C (L1210 [8]): 142%
T/C (L1210 [9]): 147%
T/C (L1210 [10]): 157%
T/C (L1210 [11]): 147%
T/C (L1210 [12]): 126%
Activity (Mus musculus [13]): 2.6 g
Activity (Mus musculus [14]): 2.1 g

CN(C)/N=N/c1c(C(N)=O)cnn1C1CCCCO1 (configuration not stated)
Activity (Mus musculus [15]): 3.5 g
Activity (Mus musculus [16]): 3.1 g
Activity (Mus musculus [17]): 2.2 g
Activity (L1210 [18]): Active
Activity (L1210 [19]): Active
Activity (L1210 [20]): Active
T/C (L1210 [21]): 123%
T/C (L1210 [22]): 117%
T/C (L1210 [23]): 107%

CC(=O)OC[C@H]1O[C@@H](n2cnc(/N=N/N(C)C)c2C(N)=O)[C@H](OC(C)=O)[C@@H]1OC(C)=O
Activity (Mus musculus [24]): 1.6 g
Activity (Mus musculus [25]): 1.5 g
Activity (Mus musculus [26]): 2.2 g
Activity (L1210 [27]): Active
Activity (L1210 [28]): Active
Activity (L1210 [29]): Active
T/C (L1210 [30]): 124%
T/C (L1210 [31]): 123%
T/C (L1210 [32]): 157%

CC(=O)OC[C@H]1O[C@@H](n2ncc(C(N)=O)c2/N=N/N(C)C)[C@H](OC(C)=O)[C@@H]1OC(C)=O
Activity (Mus musculus [24]): 2.3 g
Activity (L1210 [27]): Active
T/C (L1210 [30]): 122%

CN(C)/N=N/c1ncn(C2CCCO2)c1C(N)=O (configuration not stated)
Activity (Mus musculus [24]): 4.3 g
Activity (Mus musculus [25]): 1.9 g
Activity (L1210 [27]): Active
Activity (L1210 [28]): Active
T/C (L1210 [30]): 115%
T/C (L1210 [31]): 125%

CN(C)/N=N/c1n[nH]cc1C(N)=O
Activity (L1210 [33]): Active
Activity (L1210 [34]): Active
Activity (L1210 [35]): Active
T/C (L1210 [36]): 134%
T/C (L1210 [37]): 176%
T/C (L1210 [38]): 142%
